pEC50: −log10 of the molar value.
Legend:
STAT6 = biological target: T1, STAT6 (Homo sapiens, UniProt P42226); assay: STAT6 Degrader Assay (HiBiT based, HeLa LgBiT clone 4.14 cells); type: cell-based; conditions: geometric mean across assay runs and compound batches; DC50 provided for test compounds with >80% Emax; read-out: STAT6 degradation DC50
T1 construct: These cells express endogenous STAT6; host or cells: HeLa LgBiT clone 4.14 (CRISPR knock-in of HiBiT into the endogenous STAT6 gene)
T1 sequence (P42226 1-847): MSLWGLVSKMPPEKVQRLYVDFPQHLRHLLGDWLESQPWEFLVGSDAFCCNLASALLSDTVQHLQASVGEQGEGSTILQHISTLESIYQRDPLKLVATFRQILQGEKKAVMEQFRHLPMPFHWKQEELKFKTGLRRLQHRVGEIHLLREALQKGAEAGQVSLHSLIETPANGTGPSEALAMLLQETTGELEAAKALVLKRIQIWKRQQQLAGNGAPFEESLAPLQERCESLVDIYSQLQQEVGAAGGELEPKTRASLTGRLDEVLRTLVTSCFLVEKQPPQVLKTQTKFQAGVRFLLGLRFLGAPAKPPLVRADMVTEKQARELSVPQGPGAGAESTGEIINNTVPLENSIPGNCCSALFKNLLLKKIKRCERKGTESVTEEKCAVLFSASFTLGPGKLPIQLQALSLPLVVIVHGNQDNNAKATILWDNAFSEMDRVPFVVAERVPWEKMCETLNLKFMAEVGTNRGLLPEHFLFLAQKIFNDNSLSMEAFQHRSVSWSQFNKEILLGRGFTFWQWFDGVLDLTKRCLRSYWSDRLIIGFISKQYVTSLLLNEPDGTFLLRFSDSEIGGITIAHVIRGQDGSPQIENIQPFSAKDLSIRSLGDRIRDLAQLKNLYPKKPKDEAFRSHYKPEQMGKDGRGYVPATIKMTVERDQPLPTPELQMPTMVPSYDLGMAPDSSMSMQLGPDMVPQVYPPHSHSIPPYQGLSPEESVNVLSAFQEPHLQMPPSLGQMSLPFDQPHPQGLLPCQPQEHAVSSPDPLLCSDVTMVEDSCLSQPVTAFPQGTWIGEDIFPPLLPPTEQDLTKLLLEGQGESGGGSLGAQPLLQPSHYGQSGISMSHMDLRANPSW
Summary of the method: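 HeLa LgBiT clone 4.14 with CRISPR HiBiT-tagged endogenous STAT6, 5000 cells/well, compound exposure 4-24 h at 37° C. Residual STAT6 read as Nano-Glo luminescence after 0.5 h. 50 μM terfenadine set 100% degradation; DC50 in nM.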

[1] = tested on: Eotaxin-3 (CCL26) release; assay: Human Whole Blood Eotaxin-3 Assay (IL-4 stimulated); type: cell-based; conditions: Homo sapiens; geometric mean across assay runs and compound batches; EC50 provided for test compounds with >80% Emax
Procedure: This was a human whole blood assay using recombinant human Interleukin 4 to stimulate the blood and measuring the ability of the test compounds to inhibit eotaxin-3 release. The biological activities of the test compounds have been tested in human whole blood stimulated with IL-4 measuring Eotaxin-3 release. The test compounds were added to 384 well clear flat-bottom plate in a 4-fold serial dilution in triplicates using a liquid handler. Human whole blood stabilized in lithium-heparin tubes was added in a volume of 65 μL per well, resulting in a final DMSO concentration of 0.5%. The plate is incubated for 2 h at 37° C. under 5% CO2/95% air. Subsequently, 5 μL of recombinant human IL-4 (R&D Systems, cat #204-ILB) was added to the wells to a final concentration of 400 pM. The plate was incubated for 48 h at 37° C. under 5% CO2/95% air. The plate was spun down for 10 minutes at 500×g and 20 μL supernatant was harvested and transferred to a 384 well v-bottom plate using a liquid handler and stored at −20° C. until further analysis. 10 μL supernatant was used to measure the level of Eotaxin-3 (CCL26) using Human Eotaxin-3 MSD kit from Mesocsale (Cat #K251UEK-4). The assay was performed according to the manufacture instructions.

SMILES | DC50 (STAT6) | pEC50 [1]
CNc1cc(=O)n(-c2ccnc3c2cc(CN2CCC(c4c(F)cc(C(=O)N5CCn6nc(CN7CCC(c8ccc(NC9CCC(=O)NC9=O)c(OC)c8)CC7)cc6C5)cc4F)CC2)n3C)cc1F (stereo not drawn) [Example 2g122, 3-((4-(1-((5-(3,5-difluoro-4-(1-((4-(5-fluoro-4-(methyl-amino)-2-oxopyridin-1(2H)-yl)-1-methyl-1H-pyrrolo[2,3-b]pyridin-2-yl)methyl)piperi-din-4-yl)benzoyl)-4,5,6,7-tetrahydropyrazolo[1,5-a]pyr-azin-2-yl)methyl)piperidin-4-yl)-2-methoxyphenyl)amino)-piperidine-2,6-dione] | 1.8 nM | 8.44
CNc1ccn(-c2ccnc3c2cc([C@H](C)N2CC=C(c4c(C)cc(C(=O)N5CCC(CN6CCN(c7cccc(C(=O)NC8CCC(=O)NC8=O)c7)CC6)CC5)cc4F)CC2)n3C)c(=O)c1 (stereo partly drawn) [Example 2g21, N-(2,6-dioxopiperidin-3-yl)-3-(4-((1-(3-fluoro-5-methyl-4-(1-((S)-1-(1-methyl-4-(4-(methylamino)-2-oxopyridin-1(2H)-yl)-1H-pyrrolo[2,3-b]pyridin-2-yl)ethyl)-1,2,3,6-tetrahydropyridin-4-yl)benzo-yl)piperidin-4-yl)methyl)-piperazin-1-yl)benzamide] |  | 7.44
CNc1ccn(-c2ccnc3c2cc([C@H](C)N2CC=C(c4c(C)cc(C(=O)N5CCn6c(nnc6C6CCN(Cc7ccc(NC8CCC(=O)NC8=O)c(OC)c7)CC6)C5)cc4F)CC2)n3C)c(=O)c1 (stereo partly drawn) [Example 2g9, 3-((4-((4-(7-(3-fluoro-5-methyl-4-(1-((S)-1-(1-methyl-4-(4-(methylamino)-2-oxo-pyridin-1(2H)-yl)-1H-pyrrolo [2,3-b]pyridin-2-yl)ethyl)-1,2,3,6-tetrahydropyridin-4-yl)benzoyl)-5,6,7,8-tetra-hydro[1,2,4]triazolo[4,3-a]pyrazin-3-yl)piperidin-1-yl)-methyl)-2-methoxyphenyl)-amino)-piperidine-2,6-dione] |  | 6.10
CNc1ccn(-c2ccnc3c2cc([C@H](C)N2CC=C(c4c(F)cc(C(=O)N5CCC(CN6CCN(c7ccc(N[C@@H]8CCC(=O)NC8=O)cc7F)CC6)CC5)cc4F)CC2)n3C)c(=O)c1 (single isomer, unassigned) [Example 2g105] |  | 8.06
CNc1cc(=O)n(-c2ccnc3c2cc(CN2CC=C(c4c(F)cc(C(=O)N5CCC(CN6CCN(c7ccc(N[C@@H]8CCC(=O)NC8=O)cc7F)CC6)CC5)cc4F)CC2)n3C)cc1F (single isomer, unassigned) [Example 2g67] |  | 7.00
CNc1ccn(-c2ccnc3c2cc([C@H](C)N2CC=C(c4c(C)cc(C(=O)N5CCC(CN6CCN(c7ccc(NC8CCC(=O)NC8=O)c(OC)c7)CC6)CC5)cc4F)CC2)n3C)c(=O)c1 (stereo partly drawn) [Example 2g125, 3-((4-(4-((1-(3-fluoro-5-meth-yl-4-(1-((S)-1-(1-methyl-4-(4-(methylamino)-2-oxopyridin-1(2H)-yl)-1H-pyrrolo[2,3-b]pyridin-2-yl)ethyl)-1,2,3,6-tetrahydropyridin-4-yl)benzo-yl)piperidin-4-yl)methyl)-piperazin-1-yl)-2-methoxy-phenyl)amino)piperidine-2,6-dione] |  | 7.89
CNc1cc(=O)n(-c2ccnc3c2cc([C@H](C)N2CC=C(c4c(C)cc(C(=O)N5CCC(CN6CCN(c7ncc(NC8CCC(=O)NC8=O)cc7F)CC6)CC5)cc4F)CC2)n3C)cc1F (stereo partly drawn) [Example 2g64, 3-((5-fluoro-6-(4-((1-(3-fluoro-4-(1-((S)-1-(4-(5-fluoro-4-(methylamino)-2-oxopyridin-1(2H)-yl)-1-meth-yl-1H-pyrrolo[2,3-b]pyridin-2-yl)ethyl)-1,2,3,6-tetrahydro-pyridin-4-yl)-5-methylbenzo-yl)piperidin-4-yl)methyl)-piperazin-1-yl)pyridin-3-yl)-amino)piperidine-2,6-dione] |  | 7.59
CNc1nc(=O)n(-c2ccnc3c2cc([C@H](C)N2CC=C(c4c(C)cc(C(=O)N5CCn6nc(CN7CCC(c8ccc(NC9CCC(=O)NC9=O)c(OC)c8)CC7)cc6C5)cc4F)CC2)n3C)cc1F (stereo partly drawn) [Example 2g8, 3-((4-(1-((5-(3-fluoro-4-(1-((S)-1-(4-(5-fluoro-4-(meth-ylamino)-2-oxopyrimidin-1(2H)-yl)-1-methyl-1H-pyrrolo[2,3-b]pyridin-2-yl)-ethyl)-1,2,3,6-tetrahydro-pyridin-4-yl)-5-methylbenzo-yl)-4,5,6,7-tetrahydropyrazolo [1,5-a]pyrazin-2-yl)methyl)-piperidin-4-yl)-2-methoxy-phenyl)amino)-piperidine-2,6-dione] |  | 8.77
C[C@@H](c1cc2c(-n3cc(F)c4c(c3=O)CCN4)ccnc2n1C)N1CC=C(c2c(F)cc(C(=O)N3CCn4nc(CN5CCC(c6ccc(NC7CCC(=O)NC7=O)cc6F)CC5)cc4C3)cc2F)CC1 (stereo partly drawn) [Example 2g3, 3-((4-(1-((5-(3,5-difluoro-4-(1-((S)-1-(4-(7-fluoro-4-oxo-1,2,3,4-tetrahydro-5H-pyrrolo [3,2-c]pyridin-5-yl)-1-methyl-1H-pyrrolo[2,3-b]pyridin-2-yl)ethyl)-1,2,3,6-tetrahydro-pyridin-4-yl)benzoyl)-4,5,6,7-tetrahydropyrazolo[1,5-a]pyrazin-2-yl)methyl)piperi-din-4-yl)-3-fluorophenyl)-amino)piperidine-2,6-dione] |  | 8.06

Continued by rising pEC50 [1], values first:

DC50 (STAT6) | pEC50 [1] | SMILES
 | 6.57 | Cc1cc(C(=O)N2CCC(CN3CCN(c4ccc(NC5CCC(=O)NC5=O)cc4F)CC3)CC2)cc(F)c1C1=CCN([C@@H](C)c2cc3c(-n4cc(F)c5c(c4=O)CCN5)ccnc3n2C)CC1 (stereo partly drawn) [Example 2g31, 3-((3-fluoro-4-(4-((1-(3-fluoro-4-(1-((S)-1-(4-(7-fluoro-4-oxo-1,2,3,4-tetra-hydro-5H-pyrrolo[3,2-c]pyridin-5-yl)-1-methyl-1H-pyrrolo[2,3-b]pyridin-2-yl)-ethyl)-1,2,3,6-tetrahydro-pyridin-4-yl)-5-methylbenzo-yl)-piperidin-4-yl)methyl)-piperazin-1-yl)phenyl)-amino)piperidine-2,6-dione]
 | 6.92 | CNc1cc(=O)n(-c2ccnc3c2cc([C@@H](C)N2CC=C(c4c(F)cc(C(=O)N5CCn6nc(CN7CCC(c8ccc(NC9CCC(=O)NC9=O)cc8F)CC7)cc6C5)cc4F)CC2)n3C)cc1F (stereo in doubt) [Example 2g2, 3-((4-(1-((5-(3,5-difluoro-4-(1-((R)-1-(4-(5-fluoro-4-(methylamino)-2-oxopyridin-1(2H)-yl)-1-methyl-1H-pyrrolo[2,3-b]pyridin-2-yl)-ethyl)-1,2,3,6-tetrahydro-pyridin-4-yl)benzoyl)-4,5,6,7-tetrahydropyrazolo[1,5-a]pyrazin-2-yl)methyl)piperi-din-4-yl)-3-fluorophenyl)-amino)piperidine-2,6-dione]
 | 7.73 | CNc1nc(=O)n(-c2ccnc3c2cc(CN2CCC(c4c(F)cc(C(=O)N5CCn6nc(CN7CCC(c8ccc(NC9CCC(=O)NC9=O)c(OC)c8)CC7)cc6C5)cc4F)CC2)n3C)cc1F (stereo not drawn) [Example 2c50, 3-((4-(1-((5-(3,5-difluoro-4-(1-((4-(5-fluoro-4-(methyl-amino)-2-oxopyrimidin-1(2H)-yl)-1-methyl-1H-pyr-rolo[2,3-b]pyridin-2-yl)meth-yl)piperidin-4-yl)benzoyl)-4,5,6,7-tetrahydropyrazolo-[1,5-a]pyrazin-2-yl)methyl)-piperidin-4-yl)-2-methoxy-phenyl)amino)piperidine-2,6-dione]
2.5 nM | 8.24 | CNc1cc(=O)n(-c2ccnc3c2cc(CN2CCC(c4c(F)cc(C(=O)N5CCn6nc(CN7CCC(c8ccc(N[C@@H]9CCC(=O)NC9=O)c(OC)c8)CC7)cc6C5)cc4F)CC2)n3C)cc1F (single isomer, unassigned) [Example 2g124]
